Source: ChEMBL document CHEMBL4387766, “Synthesis and biological evaluation of PSMA-targeting paclitaxel conjugates” (Bioorg Med Chem Lett, 2019)

Columns and labels:
[1] = Cytotoxicity against human A549 cells assessed as reduction in cell viability measured after 72 hrs by MTT assay; assay type: cell-based
PC-3 = test: Cytotoxicity against PSMA-deficient human PC3 cells assessed as reduction in cell viability measured after 72 hrs by MTT assay; assay type: functional; conditions: PC-3, 72 h
[2] = Selectivity ratio of CC50 for human VA13 cells to CC50 for PSMA-positive human LNCAP cells
LNCaP = test: Cytotoxicity against PSMA-positive human LNCAP cells assessed as reduction in cell viability measured after 72 hrs by MTT assay; assay type: functional
[3] = Cytotoxicity against human VA13 cells assessed as reduction in cell viability measured after 72 hrs by MTT assay; assay type: cell-based; conditions: WI-38 VA13 cells
CWR22R [4] = test: Cytotoxicity against PSMA-positive human 22Rv1 cells assessed as reduction in cell viability measured after 72 hrs by MTT assay; assay type: functional; conditions: 22Rv1, 72 h
[5] = Selectivity ratio of CC50 for human VA13 cells to CC50 for PSMA-positive human 22Rv1 cells
[6] = Cytotoxicity against HEK293T cells assessed as reduction in cell viability measured after 72 hrs by MTT assay; assay type: cell-based, HEK-293T; conditions: human
[7] = Selectivity ratio of CC50 for human PSMA-deficient PC3 cells to CC50 for PSMA-positive human 22Rv1 cells; assay type: functional
[8] = Selectivity ratio of CC50 for human PSMA-deficient PC3 cells to CC50 for PSMA-positive human LNCAP cells; assay type: functional
[9] = Cytotoxicity against human MCF7 cells assessed as reduction in cell viability measured after 72 hrs by MTT assay; assay type: cell-based
[10] = target: Glutamate carboxypeptidase 2 (Homo sapiens, UniProt Q04609); test: Inhibition of PSMA in human LNCAP cells using NAAG as substrate measured after 2 hrs by amplex red reagent based fluorescence assay; assay type: cell-based
Chain of Glutamate carboxypeptidase 2 (Q04609 whole entry): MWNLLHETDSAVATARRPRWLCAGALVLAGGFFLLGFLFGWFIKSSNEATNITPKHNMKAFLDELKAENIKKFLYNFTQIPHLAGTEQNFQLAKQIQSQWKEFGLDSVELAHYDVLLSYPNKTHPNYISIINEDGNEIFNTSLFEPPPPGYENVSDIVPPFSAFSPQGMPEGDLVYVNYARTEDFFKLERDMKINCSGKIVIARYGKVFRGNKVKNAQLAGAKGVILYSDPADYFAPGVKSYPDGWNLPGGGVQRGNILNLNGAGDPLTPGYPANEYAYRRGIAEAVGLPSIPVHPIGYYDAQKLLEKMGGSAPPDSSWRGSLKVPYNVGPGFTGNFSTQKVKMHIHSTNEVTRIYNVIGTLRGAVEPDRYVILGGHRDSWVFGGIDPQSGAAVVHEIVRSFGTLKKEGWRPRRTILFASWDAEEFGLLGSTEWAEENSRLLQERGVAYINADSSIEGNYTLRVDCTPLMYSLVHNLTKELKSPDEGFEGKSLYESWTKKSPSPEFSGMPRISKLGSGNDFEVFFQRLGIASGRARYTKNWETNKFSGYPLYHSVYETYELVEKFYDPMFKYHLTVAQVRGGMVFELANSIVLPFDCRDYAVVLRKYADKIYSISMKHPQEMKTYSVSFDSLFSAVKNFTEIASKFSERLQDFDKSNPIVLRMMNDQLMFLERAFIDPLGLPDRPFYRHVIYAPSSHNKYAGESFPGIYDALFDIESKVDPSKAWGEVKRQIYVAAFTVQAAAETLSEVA

CWR22R [11] = test: Antitumor activity against human 22Rv1 cells xenografted in nu/nu mouse assessed as tumor growth inhibition at 6 mg/kg, iv administered 3 times per week relative to control; assay type: functional; conditions: 22Rv1, iv, read-out: TGI

Compound | CC50 at 72 h [1] [nM] | CC50 (PC-3) [nM] | Selectivity ratio [2] | CC50 (LNCaP) [nM] | CC50 at 72 h [3] [nM] | CC50 (CWR22R [4]) [nM] | Selectivity ratio [5] | CC50 at 72 h [6] [nM] | Selectivity ratio [7] | Selectivity ratio [8] | CC50 at 72 h [9] [nM] | IC50 [10] [nM] | inhibition in vivo at 6 mg/kg (CWR22R [11]) [%]
CC(=O)O[C@H]1C(=O)[C@]2(C)[C@@H](OC(=O)CCCc3cn(CCCCCCCCCCC(=O)NCCCC[C@H](NC(=O)N[C@@H](CCC(=O)O)C(=O)O)C(=O)O)nn3)C[C@H]3OC[C@@]3(OC(C)=O)[C@H]2[C@H](OC(=O)c2ccccc2)[C@]2(O)C[C@H](OC(=O)[C@H](O)[C@@H](NC(=O)c3ccccc3)c3ccccc3)C(C)=C1C2(C)C | 632 | 2920 | 0.53 | 1010 | 1160 | 2640 | 0.59 | 730 | 1.61 | 1.43 | 1210 |  | 
[N-]=[N+]=NCCCCCC(=O)N(CCCC[C@H](NC(=O)N[C@@H](CCC(=O)O)C(=O)O)C(=O)O)Cc1ccc(O)cc1 |  |  |  |  | 50200 |  |  |  |  |  |  | 140 | 
CC(=O)O[C@H]1C(=O)[C@@]2(C)[C@H]([C@H](OC(=O)c3ccccc3)[C@]3(O)C[C@H](OC(=O)[C@H](OC(=O)CCCc4cn(CCCCCNC(=O)NCCCC[C@H](NC(=O)N[C@@H](CCC(=O)O)C(=O)O)C(=O)O)nn4)[C@@H](NC(=O)c4ccccc4)c4ccccc4)C(C)=C1C3(C)C)[C@]1(OC(C)=O)CO[C@@H]1C[C@@H]2O |  | 25 | 0.56 | 13 | 37 | 34 | 0.61 | 14 | 1.09 | 0.99 | 56 |  | 
CC(=O)O[C@H]1C(=O)[C@@]2(C)[C@H]([C@H](OC(=O)c3ccccc3)[C@]3(O)C[C@H](OC(=O)[C@H](OC(=O)CCCc4cn(CCCCCCCCCCNC(=O)NCCCC[C@H](NC(=O)N[C@@H](CCC(=O)O)C(=O)O)C(=O)O)nn4)[C@@H](NC(=O)c4ccccc4)c4ccccc4)C(C)=C1C3(C)C)[C@]1(OC(C)=O)CO[C@@H]1C[C@@H]2O | 5 | 75 | 0.71 | 60 | 101 | 132 | 0.93 | 42 | 0.83 | 0.63 | 162 |  | 
[N-]=[N+]=NCCCCCC(=O)N(CCCC[C@H](NC(=O)N[C@@H](CCC(=O)O)C(=O)O)C(=O)O)Cc1ccc(Br)cc1 |  |  |  |  |  |  |  |  |  |  |  | 170 | 
CC(=O)O[C@H]1C(=O)[C@@]2(C)[C@H]([C@H](OC(=O)c3ccccc3)[C@]3(O)C[C@H](OC(=O)[C@H](OC(=O)CCCc4cn(CCCCCCCCCCC(=O)N(CCCC[C@H](NC(=O)N[C@@H](CCC(=O)O)C(=O)O)C(=O)O)Cc5ccc(F)cc5)nn4)[C@@H](NC(=O)c4ccccc4)c4ccccc4)C(C)=C1C3(C)C)[C@]1(OC(C)=O)CO[C@@H]1C[C@@H]2O | < 30 | 479 | 0.54 | 467 | 27 | 1140 | 0.65 | 41 | 0.62 | 0.51 | 66 |  | 
CC(=O)O[C@H]1C(=O)[C@@]2(C)[C@H]([C@H](OC(=O)c3ccccc3)[C@]3(O)C[C@H](OC(=O)[C@H](OC(=O)CCCc4cn(CCCCCCCCCCC(=O)N(CCCC[C@H](NC(=O)N[C@@H](CCC(=O)O)C(=O)O)C(=O)O)Cc5ccc(Br)cc5)nn4)[C@@H](NC(=O)c4ccccc4)c4ccccc4)C(C)=C1C3(C)C)[C@]1(OC(C)=O)CO[C@@H]1C[C@@H]2O | < 30 | 25 | 0.38 | 67 | < 30 | 53 | 1.46 | < 30 | 0.7 | 0.18 | 34 |  | 
CC(=O)O[C@H]1C(=O)[C@@]2(C)[C@H]([C@H](OC(=O)c3ccccc3)[C@]3(O)C[C@H](OC(=O)[C@H](OC(=O)CCCc4cn(CCCCCC(=O)N(CCCC[C@H](NC(=O)N[C@@H](CCC(=O)O)C(=O)O)C(=O)O)Cc5ccc(Cl)cc5)nn4)[C@@H](NC(=O)c4ccccc4)c4ccccc4)C(C)=C1C3(C)C)[C@]1(OC(C)=O)CO[C@@H]1C[C@@H]2O | < 30 | 1030 | 0.26 | 1480 | 48 | 1670 | 0.7 | 40 | 0.91 | 0.34 | 78 |  | 
[N-]=[N+]=NCCCCCC(=O)N(CCCC[C@H](NC(=O)N[C@@H](CCC(=O)O)C(=O)O)C(=O)O)Cc1ccc(Cl)cc1 |  |  |  |  | > 100000 |  |  |  |  |  |  | 110 | 
CC(=O)O[C@H]1C(=O)[C@@]2(C)[C@H]([C@H](OC(=O)c3ccccc3)[C@]3(O)C[C@H](OC(=O)[C@H](OC(=O)CCCc4cn(CCCCCC(=O)N(CCCC[C@H](NC(=O)N[C@@H](CCC(=O)O)C(=O)O)C(=O)O)Cc5ccc(Br)cc5)nn4)[C@@H](NC(=O)c4ccccc4)c4ccccc4)C(C)=C1C3(C)C)[C@]1(OC(C)=O)CO[C@@H]1C[C@@H]2O | < 30 | 876 | 0.33 | 510 | 45 | 1130 | 0.45 | 38 | 1.15 | 0.85 | 94 |  | 
CC(=O)O[C@H]1C(=O)[C@@]2(C)[C@H]([C@H](OC(=O)c3ccccc3)[C@]3(O)C[C@H](OC(=O)[C@H](OC(=O)CCCc4cn(CCCCCCCCCCC(=O)NCCCC[C@H](NC(=O)N[C@@H](CCC(=O)O)C(=O)O)C(=O)O)nn4)[C@@H](NC(=O)c4ccccc4)c4ccccc4)C(C)=C1C3(C)C)[C@]1(OC(C)=O)CO[C@@H]1C[C@@H]2O | 20 | 1230 | 0.7 | 835 | 66 | 1000 | 0.85 | 294 | 1.2 | 0.99 | 189 |  | 
CC(=O)O[C@H]1C(=O)[C@@]2(C)[C@H]([C@H](OC(=O)c3ccccc3)[C@]3(O)C[C@H](OC(=O)[C@H](OC(=O)CCCc4cn(CCCCCC(=O)N(CCCC[C@H](NC(=O)N[C@@H](CCC(=O)O)C(=O)O)C(=O)O)Cc5ccc(F)cc5)nn4)[C@@H](NC(=O)c4ccccc4)c4ccccc4)C(C)=C1C3(C)C)[C@]1(OC(C)=O)CO[C@@H]1C[C@@H]2O | < 30 | 740 | 0.59 | 365 | < 30 | 1320 | 0.48 | < 30 | 0.82 | 1.01 | 49 |  | 
CC(=O)O[C@H]1C(=O)[C@@]2(C)[C@H]([C@H](OC(=O)c3ccccc3)[C@]3(O)C[C@H](OC(=O)[C@H](OC(=O)CCCc4cn(CCCCCCCCCCC(=O)N(CCCC[C@H](NC(=O)N[C@@H](CCC(=O)O)C(=O)O)C(=O)O)Cc5ccc(Cl)cc5)nn4)[C@@H](NC(=O)c4ccccc4)c4ccccc4)C(C)=C1C3(C)C)[C@]1(OC(C)=O)CO[C@@H]1C[C@@H]2O | < 30 | 20 | 0.43 | 44 | 24 | 120 | 0.47 | 23 | 0.24 | 0.22 | 56.5 |  | 
CC(=O)O[C@H]1C(=O)[C@@]2(C)[C@H]([C@H](OC(=O)c3ccccc3)[C@]3(O)C[C@H](OC(=O)[C@H](OC(=O)CCCc4cn(CCCCCC(=O)N(CCCC[C@H](NC(=O)N[C@@H](CCC(=O)O)C(=O)O)C(=O)O)Cc5ccc(O)cc5)nn4)[C@@H](NC(=O)c4ccccc4)c4ccccc4)C(C)=C1C3(C)C)[C@]1(OC(C)=O)CO[C@@H]1C[C@@H]2O | 20 | 90 | 0.37 | 43 | 65 | 61 | 0.78 | 23 | 2.19 | 1.04 | 169 |  | 
NCCCC[C@H](NC(=O)N[C@@H](CCC(=O)O)C(=O)O)C(=O)O |  |  |  |  | > 100000 |  |  |  |  |  |  | 1470 | 
CC(=O)O[C@H]1C(=O)[C@@]2(C)[C@H]([C@H](OC(=O)c3ccccc3)[C@]3(O)C[C@H](OC(=O)[C@H](O)[C@@H](NC(=O)c4ccccc4)c4ccccc4)C(C)=C1C3(C)C)[C@]1(OC(C)=O)CO[C@@H]1C[C@@H]2O [PACLITAXEL] | < 20 | 2.7 | 1 | 1.4 | < 20 | 3.9 | 1 | < 20 | 1 | 1 | < 20 |  | 30
